{"source": "patent US20180243212A1", "about": "“TRANSDERMAL FORMULATIONS FOR DELIVERY OF DOXYCYCLINE, AND THEIR USE IN THE TREATMENT OF DOXYCYCLINE-RESPONSIVE DISEASES AND CONDITIONS” (DELIVRA, INC., priority 2015, published 2018)", "key": {"[1]": {"assay": "Quantification of doxycycline in formulations 1-3 by LC-MS/MS (stability)", "format": "physicochemical", "details": "over the time period studied (three months) under the storage conditions 5-25° C.", "description": "2.0-5.0 mg of doxycycline hyclate, usp (Medisca, CAS 24390-14-5, code 0434-04, lot 59177/D) was weighed into a scintillation vial and the mass was recorded. The recorded mass was then used to calculate the volume of solvent needed to generate a final concentration of 1 mg/mL and that amount of 60:28:12 H2O:CH3CN:MeOH was accurately added to the vial using a pipette. The solution was vortexed for 30 seconds or until the doxycycline hyclate was completely dissolved.\nA 50 μg/mL solution of doxycycline hyclate was prepared by adding 50 μL of 1 mg/mL stock solution to 950 μL of methanol/water (50:50) and the resulting solution was vortexed for 10 seconds. […]\n5-10 mgs of exemplary formulation 3 to be analyzed was weighed into a scintillation vial in duplicate. The mass was recorded and used to calculate the amount of methanol/water (50:50) to add to make up to 1 mg/mL and this was added. […]\nDoxycycline was extracted in methanol:water from cream formulations by sonication, diluted and then quantified using liquid chromatography-triple quadruple mass spectrometry (LC-MS/MS). A calibration curve calculated by the peak area ratio of concentration of an analytical standard of doxycycline to an internal standard was used to calculate the concentrations of unknowns and establish linearity and LLOQ. […]"}, "[2]": {"details": "compounded from commercial tablets in the vehicles; Papich et al. (2013); cited from earlier work"}}, "data": [{"substance": "Doxycycline", "values": [{"measurement": "degradation of the doxycycline", "setting": "[1]", "value": "< 10", "unit": "%"}, {"measurement": "time over which the concentration of DOX can be assured", "setting": "[2]", "value": "≤ 7", "unit": "days"}]}]}
